In PMC6348381, “Discovery of an MLLT1/3 YEATS Domain Chemical Probe” (Angewandte Chemie (International Ed. in English), 2018):

Experiments:
[1] = biological target: T1, MLLT1 YD (Homo sapiens, UniProt Q03111); experiment: Isothermal titration calorimetry (ITC), MLLT1 YD; type: binding
T1 construct: made in house; host or cells: E. coli Rosetta
T1 sequence (Q03111 1-138 limits assumed): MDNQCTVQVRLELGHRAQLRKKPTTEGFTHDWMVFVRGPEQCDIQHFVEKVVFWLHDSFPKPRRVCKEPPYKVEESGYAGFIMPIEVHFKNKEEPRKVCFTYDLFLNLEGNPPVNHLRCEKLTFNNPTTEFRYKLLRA
Experimental: Experiments were carried out on a Nano -ITC Standard Volume Instrument (TA Instruments).
All experiments were carried out at 25 °C in 20 mM HEPES pH 7.5, 150 mM NaCl, 0.5 mM TCEP and 5% glycerol. Protein soluti ons were buffer exchanged by gel filtration. The titrations were conducted using an initial injection of 2 μL followed by 32 injections of 8 μL.
Background dilution heat was subtracted from each experiment. Thermodynamic parameters
changes in free energy, enthalpy and entropy respectively. Independent single site binding models were employed in data analysis.

[2] = test system: 48 bromodomains; experiment: Thermal shift assay, bromodomain panel; type: binding, human; conditions: 50 μM compound concentrations
Experimental: II.VII Thermal Shift Assay[6]
Thermal melting experiments were carried out using an Mx3005p Real Time PCR machine (Stratagene). Proteins were buffered in 10 mM HEPES pH 7.5, 500 mM NaCl and assayed in a 96-well plate at a final concentration of 2 μM in 20 μL volume. Compounds were added at a final concentration of 50 μM. SYPRO Orange (Molecular Probes) was added as a fluorescence probe at a dilution of 1:1000. Excitation and emission filters for the SYPRO-Orange dye were set to 465 nm and 590 nm, respectively. The temperature was raised with a step of 3 °C per minute from 25 °C to 96 °C and fluorescence readings were taken at each interval. The unfolding curves were fitted using the Boltzmann equation to determine the middle point of the transition.

[3] = biological target: BRD4(1) (Homo sapiens, UniProt O60885); experiment: AlphaScreen selectivity screen, BRD4 (1); type: binding
Description: (§1) IC50 (µM) IC50 (µM) IC50 (µM) IC50 (µM) (µM) (µM) (µM)
(§2) Supplementary Table 1. […]

[4] = biological target: TAF1 (Homo sapiens, UniProt P21675); experiment: AlphaScreen selectivity screen, TAF1; type: binding
TAF1, sequence (P21675 1522-1656): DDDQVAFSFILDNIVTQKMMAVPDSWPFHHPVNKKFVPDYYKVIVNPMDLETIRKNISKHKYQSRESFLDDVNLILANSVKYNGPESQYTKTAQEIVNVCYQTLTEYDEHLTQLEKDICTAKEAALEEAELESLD

[5] = test system: MV4;11 AML cells; experiment: qPCR gene expression in MV4;11 cells; type: cell-based, human; conditions: 1 μM, 72 h
Experimental: II.XII Analysis of gene expression by quantitative polymerase chain reaction (qPCR) […]
MV4;11 cells were cultured at 37 °C in a humidified 5% CO2 atmosphere in RPMI medium containing 10% FBS and 1% L-glutamine. Cells were seeded at a density of 2 x 10^6 cells/well in 6 well plates pre-coated in polyhema, to enable suspension culture. Cells were […]
and washing with PBS, RNA was extracted from cells using RNeasy Mini Kit (Qiagen), following the manufacturer’s protocol. Total RNA was quantified by Nanodrop and 500 ng of RNA was converted to cDNA using GoScript Reverse Transcription System (Promega). The final cDNA products were quantified by QPCR using FAM dye-labelled Taqman primers and probe sets (see table below). Data was analysed using the comparative cycle threshold (CT) method where CT values were normalised by subtracting that from an endogenous housekeeping gene (VIC dye-labelled ACTB). The gene expression levels from compound-treated cells are presented as relative to those of DMSO treated control cells. Statistical analyses were carried out using two-way ANOVA (GraphPad Prism 7).
ACTB (Beta Actin) Endogenous Control 4326315E
Supplementary Table 4. Taqman Gene Expression Assays (Life Technologies). Taqman MGB probes have 5’ FAM reporter dye (or VIC) and 3’ non-fluorescent quencher. […]

[6] = biological target: CECR2 (Homo sapiens, UniProt Q9BXF3); experiment: AlphaScreen selectivity screen, CECR2; type: binding
CECR2, sequence (Q9BXF3 434-538 limits assumed): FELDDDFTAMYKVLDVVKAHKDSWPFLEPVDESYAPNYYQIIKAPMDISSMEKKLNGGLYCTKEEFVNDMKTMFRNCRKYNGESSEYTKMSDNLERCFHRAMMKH
Description: as §1, §2

Row | SMILES | Kd [1] | activity against 48 bromodomains in thermal shift assay [2] | inhibition of BRD4 (I) ([3]; 10 μM using AS) | IC50 ([3]; AlphaScreen selectivity screen) | inhibition of TAF1 ([4]; 10 μM using AS) | IC50 ([4]; AlphaScreen selectivity screen) | gene expression of MYC, MPO, DDN, CTSG, CD86 (qPCR) [5] | CD86 gene expression (qPCR) ([5]; compared to DMSO) | DDN gene expression (qPCR) ([5]; compared to DMSO) | MYC gene expression (qPCR) ([5]; compared to DMSO) | inhibition of CECR2 ([6]; 10 μM using AS) | IC50 ([6]; AlphaScreen selectivity screen, read-out: CECR2 (2) IC50)
1 | COC(=O)c1ccc(C(=O)Nc2ccc3[nH]c(CN4CCCCC4)nc3c2)cc1 [Compound 1] | 1000 nM | no activity |  |  |  |  |  |  |  |  |  | 
2 | C[C@H]1CCCN1Cc1nc2cc(NC(=O)c3ccc4c(cnn4C)c3)ccc2[nH]1 [Compound 92] |  |  | no inhibition | > 10 µM | no inhibition | > 10 µM | changed gene expression of 3/5 genes | increase | reduction | reduction | no inhibition | > 10 µM
